Legend:
CA IX [1] = target: T1, CA IX (Homo sapiens, UniProt Q16790); assay: Intrinsic Gibbs energy of binding (TSA); details: 37°C, Fig. 5
T1 construct: made in house

CA IX [2] = tested on: CA IX; parameters: method as in earlier work; details: depending on the isozyme, ref Dudutienė et al., 2014, Matulienė et al., 2022, Zakšauskas et al.; cited from earlier work
CA I = CA I (Homo sapiens, UniProt P00915); details: intrinsic, 37°C
Method: Intrinsic thermodynamic parameters of all pairs were determined by TSA and ITC (for calculations we used Gibbs energy obtained by TSA and enthalpy from ITC measurements).

CA I, sequence (P00915 whole entry): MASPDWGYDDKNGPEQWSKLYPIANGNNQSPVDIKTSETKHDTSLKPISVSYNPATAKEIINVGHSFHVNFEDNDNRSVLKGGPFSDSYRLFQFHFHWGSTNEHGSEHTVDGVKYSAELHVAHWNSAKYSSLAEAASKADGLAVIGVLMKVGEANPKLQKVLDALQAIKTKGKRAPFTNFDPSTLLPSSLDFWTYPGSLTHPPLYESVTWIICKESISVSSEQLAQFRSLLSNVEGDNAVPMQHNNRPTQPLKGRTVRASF

Compound	intrinsic standard Gibbs energy of binding (CA IX [1]) [kJ/mol]	selectivity toward CA IX over remaining isozymes (CA IX [2])	ΔHint (CA I) [kJ/mol]
COC(=O)c1cc(S(N)(=O)=O)c(SC2CCCCC2)cc1Cl [EA2-3]	-75.0	a hundred- to a million-fold	–
CCCSc1c(F)c(F)c(S(N)(=O)=O)c(F)c1F [VD12-05]	–	–	-74.9
